The source of these data is patent publication US20240400575A1, “POLYCYCLIC COMPOUNDS AS SOLUBLE EPOXIDE HYDROLASE INHIBITORS” (Universitat De Barcelona, priority 2018, published 2024).

Some results are limits rather than exact numbers.

The target in the experiment is T1, recombinant human sEH (hsEH) (Homo sapiens, UniProt P34913).
T1 construct: purchased Cayman Chemical 10011669
T1 sequence (P34913 1-555): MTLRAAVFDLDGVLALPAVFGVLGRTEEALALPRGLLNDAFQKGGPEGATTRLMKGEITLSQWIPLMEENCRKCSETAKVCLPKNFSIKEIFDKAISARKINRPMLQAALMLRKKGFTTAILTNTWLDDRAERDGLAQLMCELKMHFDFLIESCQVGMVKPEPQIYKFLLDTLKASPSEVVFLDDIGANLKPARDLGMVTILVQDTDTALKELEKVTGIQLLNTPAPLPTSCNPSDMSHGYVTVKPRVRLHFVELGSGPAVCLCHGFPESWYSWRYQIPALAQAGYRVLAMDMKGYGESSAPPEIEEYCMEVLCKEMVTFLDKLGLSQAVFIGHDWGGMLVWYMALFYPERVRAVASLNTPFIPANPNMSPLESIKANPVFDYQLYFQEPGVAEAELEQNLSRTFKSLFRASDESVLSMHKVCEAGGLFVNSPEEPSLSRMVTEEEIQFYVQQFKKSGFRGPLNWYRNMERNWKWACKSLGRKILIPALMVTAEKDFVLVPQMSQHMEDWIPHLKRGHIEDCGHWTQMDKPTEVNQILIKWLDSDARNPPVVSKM
The experiment can be described thus: In vitro determination of sEH inhibition activity (fluorescent assay, PHOME substrate). As to conditions: fluorescence, Bis/Tris HCl pH 7.0 with 0.1 mg/mL BSA. Type of experiment: biochemical. As to the method:
Add 5 μL of DMSO to background and positive control wells, and then add 5 μL of inhibitor solution in inhibitor wells. Add 5 μL of the solution of hsEH to the positive control and inhibitor wells and stir the mixture. Prepare a 1/21 dilution of the solution of PHOME with assay buffer according to final volume required, and then add 105 μL of each well. Shake carefully the plate for 10 seconds and incubate for 5 minutes at room temperature. […] The intensity of fluorescence was used to analyze and calculate the IC50 values. Results were obtained by regression analysis from at least three data points in a linear region of the curve. IC50 values are average of minimum three independent replicates.
Usually IC50 stands for the concentration at which inhibition is half-maximal. Turning to `CC12CC3CC(NC(=O)Nc4ccc(F)c(F)c4F)(CC(C1)c1ccccc13)O2` [Example 59, 1-(5-methyl-1,5,6,7-tetrahydro-1,5:3,7-dimethanobenzo[e]oxonin-3(2H)-yl)-3-(2,3,4-trifluorophenyl)urea], the IC50 lay in the range of 10 to 50 nM.

In the case of `CC(=O)N1CCC(NC(=O)NC23CC4CC(C)(CC(C2)c2cc(F)ccc24)C3)CC1` (centres unmarked) [Example 68, 1-(1-acetylpiperidin-4-yl)-3-(2-fluoro-9-methyl-5,6,8,9,10,11-hexahydro-7H-5,9:7,11-dimethanobenzo[9]annulen-7-yl)urea], the IC50 was less than 10 nM.

For the compound `CC(=O)c1ccc2c(c1)C1CC3(C)CC2CC(NC(=O)NC2CCN(C(C)=O)CC2)(C1)C3` (centres unmarked) [Example 51, 1-(2-acetyl-9-methyl-5,6,8,9,10,11-hexahydro-7H-5,9:7,11-dimethano-benzo[9]annulen-7-yl)-3-(1-acetylpiperidin-4-yl)urea], the IC50 was less than 10 nM.

Regarding `CC(=O)N1CCC(NC(=O)NC23CC4CC(F)(CC(C2)c2c(F)cccc24)C3)CC1` (centres unmarked) [Example 74, 1-(1-acetylpiperidin-4-yl)-3-(1,9-difluoro-5,6,8,9,10,11-hexahydro-7H-5,9:7,11-dimethanobenzo[9]annulen-7-yl)urea], the IC50 was less than 10 nM.

Take `CC12CC3CC(NC(=O)NC4CCC(Oc5ccc(C(=O)O)cc5)CC4)(CC(C1)c1ccccc13)O2` (centres unmarked) [Example 43, 4-(((1r,4r)-4-(3-(5-methyl-1,5,6,7-tetrahydro-1,5:3,7-dimethanobenzo [e]oxonin-3(2H)-yl)ureido)cyclohexyl)oxy)benzoic acid]: the IC50 lay within 10 to 50 nM.

As for `CC12CC3CC(NC(=S)Nc4ccc(C(F)(F)F)cc4)(CC(C1)c1ccccc13)C2` [Example 35, 1-(9-methyl-5,6,8,9,10,11-hexahydro-7H-5,9:7,11-dimethanobenzo[9]annulen-7-yl)-3-(4-(trifluoromethyl)phenyl)thiourea], the IC50 lay within 100 to 1000 nM.

Take `CC(=O)N1CCC(CC(=O)NC23CC4CC(C)(CC(C2)c2ccccc24)C3)CC1` [Example 57, 2-(1-acetylpiperidin-4-yl)-N-(9-methyl-5,6,8,9,10,11-hexahydro-7H-5,9:7,11-dimethanobenzo[9]annulen-7-yl)acetamide]: the 50% inhibitory concentration (IC50) was in the range of 100 to 1000 nM.

Take `CC12CC3CC(NC(=O)NC4CCN(C(=O)c5ccccc5F)CC4)(CC(C1)c1ccccc13)C2` [Example 66, 1-(1-(2-fluorobenzoyl)piperidin-4-yl)-3-(9-methyl-5,6,8,9,10,11-hexa-hydro-7H-5,9:7,11-dimethanobenzo[9]annulen-7-yl)urea]: the IC50 is less than 10 nM.

On to `CC12CC3CC(NC(=O)NC4CCC(Oc5ccc(C(=O)O)cc5)CC4)(CC(C1)c1ccccc13)C2` (centres unmarked) [Example 44, 4-(((1r,4r)-4-(3-(9-methyl-5,6,8,9,10,11-hexahydro-7H-5,9:7,11-dimethanobenzo[9]annulen-7-yl)ureido)cyclohexyl)oxy)benzoic acid], for which the IC50 was less than 10 nM.

Consider `CC12CC3CC(NC(=O)NC4CC5CCC(C4)N5Cc4ccccc4)(CC(C1)c1ccccc13)C2` [Example 67, 1-((1R,3s,5S)-8-benzyl-8-azabicyclo[3.2.1]octan-3-yl)-3-(9-methyl-5,6,8.9.10,11-hexahydro-7H-5.9:7,11-dimethanobenzo[9]annulen-7-yl)urea], for which the IC50 was less than 10 nM.

Regarding `CC(=O)N1CCC(NC(=O)NC23CC4CC(C)(CC(C2)c2c(F)cccc24)C3)CC1` (centres unmarked) [Example 70, 1-(1-acetylpiperidin-4-yl)-3-(1-fluoro-9-methyl-5,6,8,9,10,11-hexahydro-7H-5,9:7,11-dimethanobenzo[9]annulen-7-yl)urea], the concentration for half-maximal inhibition (IC50) was less than 10 nM.

With `COc1ccc2c(c1)C1CC3(C)CC2CC(NC(=O)NC2CCN(C(C)=O)CC2)(C1)C3` (centres unmarked) [Example 69, 1-(1-acetylpiperidin-4-yl)-3-(2-methoxy-9-methyl-5,6,8,9,10,11-hexa-hydro-7H-5.9:7,11-dimethanobenzo[9]annulen-7-yl)urea], the IC50 is less than 10 nM.

For `CC(=O)c1ccc(N2CCC(NC(=O)NC34CC5CC(C)(CC(C3)c3ccccc35)C4)CC2)cc1` [Example 64, 1-(1-(4-acetylphenyl)piperidin-4-yl)-3-(9-methyl-5,6,8,9,10,11-hexahydro-7H-5,9:7,11-dimethanobenzo[9]annulen-7-yl)urea], the IC50 is less than 10 nM.

In the case of `CC(=O)N1CCC(NC(=O)NC23CC4CC2CC(C3)c2ccccc24)CC1` [Example 72, 1-(1-acetylpiperidin-4-yl)-3-(5,8,9,10-tetrahydro-5,8:7,10-dimethano-benzo[8]annulen-7(6H)-yl)urea], the half-inhibitory concentration (IC50) was 10 to 50 nM.

For the compound `CC(=O)N1CCC(NC(=O)NC23CC4CC(C)(CC(C2)c2cc([N+](=O)[O-])ccc24)C3)CC1` (centres unmarked) [Example 52, 1-(1-acetylpiperidin-4-yl)-3-(9-methyl-2-nitro-5,6,8,9,10,11-hexahydro-7H-5,9:7,11-dimethanobenzo[9]annulen-7-yl)urea], the IC50 is less than 10 nM.

As for `COc1cc2c(cc1OC)C1CC3(C)CC2CC(NC(=O)NC2CCN(C(C)=O)CC2)(C1)C3` [Example 71, 1-(1-acetylpiperidin-4-yl)-3-(2,3-dimethoxy-9-methyl-5,6,8,9,10,11-hexahydro-7H-5.9:7,11-dimethanobenzo[9]annulen-7-yl)urea], the IC50 is less than 10 nM.

Consider `CC12CC3CC(NC(=O)Nc4ccc(F)c(F)c4F)(CC(C1)c1ccccc13)C2` [Example 58, 1-(9-methyl-6,7,8,9,10,11-hexahydro-5H-5,9:7,11-dimethanobenzo[9]annulen-7-yl)-3-(2,3,4-trifluorophenyl)urea], for which the IC50 is less than 10 nM.

As to `COC12CC3CC(NC(=O)Nc4nc5ccccc5s4)(CC(C1)c1ccccc13)C2` [Example 73, 1-(benzo[d]thiazol-2-yl)-3-(9-methoxy-5,6,8,9,10,11-hexahydro-7H-5,9:7,11-dimethanobenzo[9]annulen-7-yl)urea], the IC50 was in the range of 100 to 1000 nM.

As to `CC12CC3CC(NC(=O)NC4CCN(Cc5ccccc5)CC4)(CC(C1)c1ccccc13)C2` [Example 48, 1-(1-benzylpiperidin-4-yl)-3-(9-methyl-5,6,8,9,10,11-hexahydro-7H-5,9:7,11-dimethanobenzo[9]annulen-7-yl)urea], the IC50 is less than 10 nM.

As for `CC(=O)N1CCC(NC(=O)NC23CC4CC(C)(CC(C2)c2ccccc24)O3)CC1` [Example 36, 1-(1-acetylpiperidin-4-yl)-3-(5-methyl-1,5,6,7-tetrahydro-1,5:3,7-dimethanobenzo[e]oxonin-3(2H)-yl)urea], the 50% inhibitory concentration (IC50) was 100 to 1000 nM.

Consider `CC(C)S(=O)(=O)N1CCC(CC(=O)NC23CC4CC(C)(CC(C2)c2ccccc24)C3)CC1` [Example 56, 2-[1-(isopropylsulfonyl)piperidin-4-yl]-N-(9-methyl-5,6,8,9,10,11-hexahydro-7H-5,9:7,11-dimethanobenzo[9]annulen-7-yl)acetamide], for which the 50% inhibitory concentration (IC50) lay in the range of 10 to 50 nM.

Turning to `CC(=O)N1CCC(NC(=O)NC23CC4CC(C)(CC(C2)c2cc(N)ccc24)C3)CC1` (centres unmarked) [Example 53, 1-(1-acetylpiperidin-4-yl)-3-(2-amino-9-methyl-5,6,8,9,10,11-hexa-hydro-7H-5,9:7,11-dimethanobenzo[9]annulen-7-yl)urea], the IC50 fell in the range of 10 to 50 nM.

For the compound `CC12CC3CC(NC(=O)CC4CCN(Cc5ccccc5)CC4)(CC(C1)c1ccccc13)C2` [Example 60, 2-(1-benzylpiperidin-4-yl)-N-(9-methyl-5,6,8,9,10,11-hexahydro-7H-5.9:7,11-dimethanobenzo[9]annulen-7-yl)acetamide], the IC50 fell in the range of 100 to 1000 nM.
